In US20250049737A1, “Lauflumide and derivatives thereof for treating chronic fatigue syndrome and myalgic encephalomyelitis/chronic fatigue syndrome (ME/CFS)” (NLS Pharmaceutics AG, priority 2021, published 2025):
Entries after “also recorded” stand apart in the source; their conditions may differ.

System: Rat model of severe fatigue
Assay: Rat model of severe fatigue (sleep deprivation): recording of circadian locomotor activity
Assay type: in vivo, Rats, Sprague-Dawley
Settings: for Period after administration during which the distance travelled was dramatically increased: 2-h period analysis; for Distance travelled during the 12-h dark phase / Total distance travelled during the full 24-h period / Difference of distance travelled between the dark phase and the light phase / Distance travelled during the 12-h light phase: days 1, 2 and 3
Protocol: In the following example, Lauflumide is also called NLS-4.
Animals are individually housed in transparent polycarbonate cages (1354G Eurostandard Type IV cage, Tecniplast, Italy, 595×380×200 mm, floor area=1820 cm^2) filled with water (23±1° C.) to a height of 1.5 cm. A platform (5 cm height, 6.5 cm diameter) was located at the center of the cage. Animals can stay on the platform in order to stay dry but falls from it when it falls in deep sleep. […] During this period, animals were placed in a modified light/dark cycle with variable durations of the light and dark periods which change every day. This procedure is intended to disrupt the circadian rhythm.
The Sham group was housed in normal condition for the same period under a 12/12 h light/dark cycle.
After the end of the fatigue period, animals were placed in transparent polycarbonate cages (Type E, Iffa Credo, France, 450×300×200 mm, floor area=1032 cm^2), under a 12 h/12 h cycle. Cages were covered with a stainless steel grid in which food and a bottle are placed. A stainless steel removable divider separated food and water. The cages were placed in infrared photobeam detection systems (Acti-track, LSI Leticca, Panlab) allowing to record continuously the distance travelled in the cage. Locomotor activity was recorded continuously for 3 days. The test started at the beginning of the dark phase of the light/dark cycle.
Seventy-six animals were subjected to the fatigue procedure and to the tests as described above. Twelve animals (Sham group) were housed in standard condition.
After the end of the Fatigue procedure, animals were divided into 10 groups which received before tests (total: 3 administrations) a per-os (p.o., oral gavage) administration of: • Sham (no fatigue) group (N=12): Vehicle. • Control group (N=11): Vehicle. • Modafinil 32 (N=10): modafinil (32 mg/kg). • Modafinil 64 (N=10): modafinil (64 mg/kg). • Modafinil 128 (N=5): modafinil (128 mg/kg). • NLS-4 16 (N=5): NLS-4 (16 mg/kg). • NLS-4 32 (N=10): NLS-4 (32 mg/kg). • NLS-4 64 (N=10): NLS-4 (64 mg/kg). • NLS-4 128 (N=10): NLS-4 (128 mg/kg). • NLS-4 256 (N=5): NLS-4 (256 mg/kg).
Read-out: distance travelled during 24-h periods, 12-h dark and light periods and during 2-h periods.
Data are expressed as mean and standard error of mean (SEM).
Statistical analyses: Student's t test, repeated measure ANOVA.
A difference is considered statistically significant at p≤0.05.

[1] = 16 mg/kg p.o., vs. Control (fatigue) group
[2] = 16 mg/kg p.o., vs. Modafinil 32 group (32 mg/kg)
[3] = 16 mg/kg p.o., vs. Modafinil 64 group (64 mg/kg)
[4] = 16 mg/kg p.o., vs. Sham (no fatigue) group, listed as NLS-4
[5] = 32 mg/kg p.o., vs. Control (fatigue) group
[6] = 32 mg/kg p.o., vs. Sham (no fatigue) group
[7] = 64 mg/kg p.o., vs. Control (fatigue) group
[8] = 64 mg/kg p.o., vs. Sham (no fatigue) group
[9] = 128 mg/kg p.o., vs. Control (fatigue) group
[10] = 128 mg/kg p.o., vs. Sham (no fatigue) group
[11] = 256 mg/kg p.o., vs. Control (fatigue) group
[12] = 256 mg/kg p.o., vs. Sham (no fatigue) group

Structure (SMILES): NC(=O)C[S@@+]([O-])C(c1ccc(F)cc1)c1ccc(F)cc1 [Lauflumide, 2-[(R)-((bis(4-fluorophenyl)methane)sulfinyl)]acetamide]
- Dose reducing the impairment of circadian rhythm, relative to modafinil (16 mg/kg NLS-4 vs. 64 mg/kg modafinil): four times lower
- Increase in locomotor activity compared with modafinil (32 mg/kg) (16 mg/kg p.o.): significantly higher
- Increase in locomotor activity compared with modafinil (64 mg/kg) (16 mg/kg p.o.): of the same magnitude
- Motor activity during the first 2-h periods following the dosing (16 mg/kg p.o.): increased
- Period after administration during which the distance travelled was dramatically increased (16 mg/kg p.o.): 2 h
- Distance travelled during the 12-h dark phase [1]: higher
- Total distance travelled during the full 24-h period [1]: higher
- Difference of distance travelled between the dark phase and the light phase (16 mg/kg p.o., vs. Control (fatigue) group, listed as NLS-4): higher or tended to be higher; also recorded: increased
- Difference of distance travelled between the dark phase and the light phase [2]: higher than the Modafinil 32 group on days 2 and 3 only
- Distance travelled during the 12-h light phase [2]: higher than the Modafinil 32 group during the dark period on day 3 only and during the light period on day 1 only
- Total distance travelled during the full 24-h period [2]: higher than the Modafinil 32 group on day 3 only
- Difference of distance travelled between the dark phase and the light phase [3]: not significantly different
- Distance travelled during the 12-h dark phase [3]: not significantly different
- Distance travelled during the 12-h light phase [3]: not significantly different
- Total distance travelled during the full 24-h period [3]: not significantly different
- Total distance travelled during the full 24-h period (16 mg/kg p.o., vs. Sham (no fatigue) group): not significantly different
- Difference of distance travelled between the dark phase and the light phase [4]: increased the distance travelled in comparison with the Sham group during day 3 only; also recorded: higher than the Sham group on day 3 only
- Distance travelled during the 12-h dark phase [4]: increased the distance travelled in comparison with the Sham group during the light phase on day 1 and during the dark phase on day 3; also recorded: higher than the Sham group during the dark period on day 3 only
- Distance travelled during the 12-h light phase [4]: increased the distance travelled in comparison with the Sham group during the light phase on day 1 and during the dark phase on day 3; also recorded: higher than the Control group during the light periods on day 1 only
- Period after administration during which the distance travelled was dramatically increased (32 mg/kg p.o.): 8 h
- Distance travelled during the 12-h dark phase [5]: higher
- Distance travelled during the 12-h light phase [5]: not significantly different
- Total distance travelled during the full 24-h period [5]: higher
- Difference of distance travelled between the dark phase and the light phase (32 mg/kg p.o., vs. Control (fatigue) group, listed as NLS-4): higher or tended to be higher; also recorded: increased
- Difference of distance travelled between the dark phase and the light phase [6]: increased the distance travelled in comparison with the Sham group during day 3 only
- Distance travelled during the 12-h dark phase [6]: increased the distance travelled in comparison with the Sham group during the light phase on days 1, 2 and 3, and during the dark phase on days 2 and 3
- Distance travelled during the 12-h light phase [6]: increased the distance travelled in comparison with the Sham group during the light phase on days 1, 2 and 3, and during the dark phase on days 2 and 3
- Total distance travelled during the full 24-h period [6]: increased the distance travelled in comparison with the Sham group during days 1, 2 and 3
- Distance travelled during the 12-h dark phase [7]: higher
- Distance travelled during the 12-h light phase [7]: higher for the NLS-4 64 group than for the Control group during the dark phase on days 1, 2 and 3 and during the light phase on day 3 only
- Total distance travelled during the full 24-h period [7]: higher
- Difference of distance travelled between the dark phase and the light phase (64 mg/kg p.o., vs. Control (fatigue) group, listed as NLS-4): higher or tended to be higher; also recorded: increased
- Distance travelled during the 12-h dark phase [8]: increased the distance travelled in comparison with the Sham group during both the dark and light phase on days 1, 2 and 3
- Distance travelled during the 12-h light phase [8]: increased the distance travelled in comparison with the Sham group during both the dark and light phase on days 1, 2 and 3
- Total distance travelled during the full 24-h period [8]: increased the distance travelled in comparison with the Sham group during days 1, 2 and 3
- Distance travelled during the 12-h dark phase [9]: higher
- Distance travelled during the 12-h light phase [9]: higher
- Total distance travelled during the full 24-h period [9]: higher
- Difference of distance travelled between the dark phase and the light phase (128 mg/kg p.o., vs. Control (fatigue) group, listed as NLS-4): higher or tended to be higher; also recorded: increased
- Distance travelled during the 12-h dark phase [10]: increased the distance travelled in comparison with the Sham group during both the dark and light phase on days 1, 2 and 3
- Distance travelled during the 12-h light phase [10]: increased the distance travelled in comparison with the Sham group during both the dark and light phase on days 1, 2 and 3
- Total distance travelled during the full 24-h period [10]: increased the distance travelled in comparison with the Sham group during days 1, 2 and 3
- Distance travelled during the 12-h dark phase [11]: higher
- Distance travelled during the 12-h light phase [11]: higher
- Total distance travelled during the full 24-h period [11]: higher
- Difference of distance travelled between the dark phase and the light phase (256 mg/kg p.o., vs. Control (fatigue) group, listed as NLS-4): higher or tended to be higher; also recorded: increased
- Difference of distance travelled between the dark phase and the light phase [12]: increased the distance travelled in comparison with the Sham group during day 3 only
- Distance travelled during the 12-h dark phase [12]: increased the distance travelled in comparison with the Sham group during both the dark and light phase on days 1, 2 and 3
- Distance travelled during the 12-h light phase [12]: increased the distance travelled in comparison with the Sham group during both the dark and light phase on days 1, 2 and 3
- Total distance travelled during the full 24-h period [12]: increased the distance travelled in comparison with the Sham group during days 1, 2 and 3
- Distance travelled during the dark phase (2-h period analysis), dose relation (16-256 mg/kg p.o.): dose-dependently increased
- Period after administration during which the distance travelled was dramatically increased (64-256 mg/kg p.o.): 10 h
